≈ marks a conversion by molar mass, not a printed value.

For assay [1], the system named is Human umbilical vein endothelial cells. Briefly: inhibition of human umbilical vein endothelial cell growth (MTT). The assay is classed as cell-based. The note with it: rFGF 2 ng/ml, 5-day culture, concentration giving 50% OD value of control; for IC50: Homo sapiens, Endothelial cell, 120 h, read-out: IC₅₀. On the procedure:
Human umbilical vein endothelial cells were isolated by perfusion of an umbilical vein with a trypsin-containing medium. The cells were cultured in sequence in GIT medium (Nihon Pharm. In.) supplemented with 2.5% fetal bovine serum and 2.0 ng/ml or recombinant human fibroblast growth factor (hereinafter simply referred to rFGF, prepared at Biotechnology Research Laboratories, Takeda Chemical Industries, Ltd.).
A suspension of human vein endothelial cells at the cell density of 2 x 10³ (100 µl) was seeded on 96-well incubation plate (Nunc, 1-67008), and incubation was conducted in a gas-controlled thermostat vessel. […] After 5-day culture, the medium was removed by suction, 100 µl of 1 mg/ml of MTT solution [3-(4,5-dimethyl-2-thiazolyl)-2,5-diphenyl-2H-tetrazolium bromide was dissolved in the medium] was added and kept warming for 4 hours. Then, 100 µl of a 10% SDS solution (aqueous solution of sodium dodecyl sulfate) was added, and the mixture was kept warming for 5-6 hours. The cells and MTT pigment were solubilized, and the optical density ([…]) was measured using a spectrophotometer. The OD value of the control group to which no test sample was added was set as 100%, and the activity of each test sample for inhibiting endothelial cell growth was shown in Table 2 by the concentration of the test compound giving 50% OD value, i.e. IC₅₀ value.

Assay [2] deals with bFGF-induced angiogenesis. Briefly: angiogenesis inhibitory activity by the rat cornea micropocket method. The assay is classed as in vivo, Sprague-Dawley rats. Particulars: number of rats on which angiogenesis inhibitory activity was observed relative to the number of rats tested, sample pellet 20 µg beside bFGF (250 ng) pellet in cornea, observed after 10 days; for responders at 20 µg/pellet: Rattus norvegicus, 240 h, read-out: Inhibitory Rate (converted). On the procedure: The object compounds (I) obtained in the Working Examples given below were evaluated for angiogenesis inhibitory activity by the rat cornea micropocket method.
Essentially the same method of Gimbrone et al. [J. National Cancer Institute, 52, 413-419 (1974)] was followed. Thus, adult male Sprague-Dawley rats 11 to 16 week old) were anesthetized with nembutal and locally anesthetized by instillation of xylocaine eyedrops onto the eyeball. The cornea was incised to a length of about 2 mm at about 2 mm inside from the corneal circumference by means of an injection needle, and a sustained release pellet containing basic fibroblast growth growth factor (bFGF; bovine brain-derived, purified product; R & D Inc.) and a sustained release pellet containing the test sample were inserted side by side into the incision so that the bFGF pellet was located on the central side in the cornea. In the control group, the bFGF pellet and a sample-free pellet were inserted into the cornea. After 10 days, the cornea was observed under a stereoscopic microscope.
The sustained release pellets were prepared in the following manner. An ethylene-vinyl acetate copolymer (Takeda Chemical Industries, Ltd.) was dissolved in dichloromethane to a concentration of 8%. A 3 µl portion of the solution was air-dried on a glass dish, an aqueous solution of bFGF (250 ng) was then placed thereon and air-dried and, finally 3 µl of the above ethylene-vinyl acetate copolymer solution was placed further thereon and air-dried to give a sandwich sheet. This sandwich sheet was made round into a bFGF pellet. The test sample pellets were prepared by dissolving each sample in ethanol in a concentration of 20 µg/2 µl, mixing the solution with 6 µl of an ethylene-vinyl acetate copolymer solution, air-drying the mixed solution in a glass dish and making the thus-obtained sheet round.
Incidentally, in the Table 1 below, the inhibitory rate means the number of rats on which angiogenesis inhibitory activity was observed relative to the number of rats tested.

Take “6β-(N′-chloroacetylureido)-4′,5′-dihydro-6-desoxyfumagillol [Example 14]”: the IC₅₀ in assay [1] worked out at 0.14 ng/mL. The “Inhibitory Rate” value in assay [2] is listed as 5/5. As for `CO[C@@H]1[C@H](N)CC[C@]2(CO2)[C@H]1[C@@]1(C)O[C@@H]1CC=C(C)C` [Example 1, 6α-Amino-desoxyfumagillol], the IC50 in assay [1] amounted to 7.92 ng/mL (≈ 28.1 nM). Consider `CO[C@@H]1[C@H](Nc2ccccc2)CC[C@]2(CO2)[C@H]1[C@@]1(C)O[C@@H]1CC=C(C)C` [Example 2, 6α-Phenylamino-6-desoxyfumagillol], for which, in assay [2], the responders at 20 µg/pellet is 62.5%. Take `CO[C@@H]1[C@H](N(C)C(C)=O)CC[C@]2(CO2)[C@H]1[C@@]1(C)O[C@@H]1CC=C(C)C` [Example 3, 6α-(Acetyl)methylamino-6-desoxyfumagillol]: the IC50 in assay [1] is 3.21 ng/mL (≈ 9.51 nM). For the same molecule, in assay [2], the responders at 20 µg/pellet is 50%. For `CO[C@@H]1[C@H](NC(C)=O)CC[C@]2(CO2)[C@H]1[C@@]1(C)O[C@@H]1CC=C(C)C` [Example 5, 6α-Acetylamino-6-desoxyfumagillol] the same measures were 0.06 ng/mL (≈ 0.186 nM) and 57.1%. The like results for `CO[C@@H]1[C@H](NS(=O)(=O)c2ccc(C)cc2)CC[C@]2(CO2)[C@H]1[C@@]1(C)O[C@@H]1CC=C(C)C` [Example 6, 6α-(p-Toluenesulfonylamino)-6-desoxyfumagillol] were, in that order, 7.04 ng/mL (≈ 16.2 nM) and 75%. For `CO[C@@H]1[C@H](NC(=O)OCC(C)C)CC[C@]2(CO2)[C@H]1[C@@]1(C)O[C@@H]1CC=C(C)C` [Example 7, 6α-(Isobutyloxy-carbonylamino)-6-desoxyfumagillol], the IC50 in assay [1] is 0.17 ng/mL (≈ 0.446 nM). Further, the responders at 20 µg/pellet in assay [2] is 100%.

On to `CO[C@@H]1[C@H](NC(=O)c2ccccc2)CC[C@]2(CO2)[C@H]1[C@@]1(C)O[C@@H]1CC=C(C)C` [Example 8, 6α-Benzoylamino-6-desoxyfumagillol], for which the IC50 in assay [1] was 0.2 ng/mL (≈ 0.519 nM). The responders at 20 µg/pellet in assay [2] is 85.7%. For `CO[C@@H]1[C@H](NC(=O)NC(=O)CCl)CC[C@]2(CO2)[C@H]1[C@@]1(C)O[C@@H]1CC=C(C)C` [Example 9, 6α-(N′-chloroacetylureido)-6-desoxyfumagillol] the same measures were 0.057 ng/mL (≈ 0.142 nM) and 100%. Turning to `CO[C@@H]1[C@H](NC(=S)Nc2cccc3ccccc23)CC[C@]2(CO2)[C@H]1[C@@]1(C)O[C@@H]1CC=C(C)C` [Example 10, 6α-[N′-(1-naphthyl)thioureido]-6-desoxyfumagillol], the IC50 in assay [1] worked out at 8.13 ng/mL (≈ 17.4 nM). For the same molecule, the responders at 20 µg/pellet in assay [2] is 40%. The like results for `CO[C@@H]1[C@H](NC(=O)Nc2cccc3ccccc23)CC[C@]2(CO2)[C@H]1[C@@]1(C)O[C@@H]1CC=C(C)C` [Example 11, 6α-[N′-(1-naphthyl)ureido]-6-desoxyfumagillol] were, in that order, 0.34 ng/mL (≈ 0.755 nM) and 100%.

As for `CO[C@@H]1[C@H](NC(=O)NCCCl)CC[C@]2(CO2)[C@H]1[C@@]1(C)O[C@@H]1CC=C(C)C` [Example 12, 6α-[N′-(2-chloroethyl)ureido]-6-desoxyfumagillol], the IC50 in assay [1] is 1.16 ng/mL (≈ 3 nM). With `CO[C@@H]1[C@H](NC(N)=O)CC[C@]2(CO2)[C@H]1[C@@]1(C)O[C@@H]1CC=C(C)C` [Example 13, 6α-Ureido-6-desoxyfumagillol], in assay [1], the IC50 amounted to 0.1 ng/mL (≈ 0.308 nM). Moreover, the responders at 20 µg/pellet in assay [2] is 100%. The like results for `CO[C@@H]1[C@@H](N)CC[C@]2(CO2)[C@H]1[C@@]1(C)O[C@@H]1CC=C(C)C` [Example 16, 6β-Amino-6-desoxyfumagillol] were, in that order, 9.49 ng/mL (≈ 33.7 nM) and 50%.

Turning to `CO[C@@H]1[C@@H](N2CCCC2)CC[C@]2(CO2)[C@H]1[C@@]1(C)O[C@@H]1CC=C(C)C` [Example 19, 6β-Pyrrolidino-6-desoxyfumagillol], the responders at 20 µg/pellet in assay [2] is 66.7%.

As for `CO[C@H]1[C@H]([C@@]2(C)O[C@@H]2CC=C(C)C)[C@]2(CC[C@@H]1[N+]1(C)CCCC1)CO2` [Example 20, 6β-Pyrrolidino-6-desoxyfumagillol methyl iodide], the responders at 20 µg/pellet in assay [2] is 42.9%.

Source of the values: patent EP0386667B1, “6-Amino-6-desoxyfumagillols, production and use thereof” (Takeda Chemical Industries, Ltd., priority 1989, dated 1990).
